From patent publication US20170253607A1, “LONG-ACTING HIV PROTEASE INHIBITOR” (Shionogi & Co., Ltd., priority 2014, published 2017)

What follows are compounds tested against HIV-1 PR (Human immunodeficiency virus type 1 group M subtype B, UniProt P04585) (assay: HIV-protease inhibitory activity assay (FRET peptide substrate)). Conditions: Test Example 1.
Format: biochemical
Summary of the method: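 Inhibition of HIV-1 protease was measured as loss of fluorescence dequenching of a HiLyte Fluor 488/QXL 520 peptide at 2 μmol/L, pH 4.8, room temperature, 60 minute reaction. IC50 was derived by nonlinear four-parameter fitting.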

SMILES | IC50
COc1ccc(S(=O)(=O)N(CC(C)C)CC(O)C(Cc2ccc(N3CCC(c4ccccc4-c4sc5c(c4C(=O)O)CC(C)(C)CC5)C3)cc2)NC(=O)OC2COC3(C)OCCC23)cc1 (stereo not drawn) [Compound I-523] | 9.44 nM
COc1ccc(S(=O)(=O)N(CC(C)C)CC(O)C(Cc2ccc(NCC3=C(c4sc5c(c4C(=O)O)CC(C)(C)CC5)COC3)cc2)NC(=O)OC2COC3(C)OCCC23)cc1 (stereo not drawn) [Compound I-527] | 1.99 nM
COc1ccc(S(=O)(=O)N(CC(C)C)CC(O)C(Cc2ccc(NCc3cccc(-c4ccccc4)c3-c3sc4c(c3C(=O)O)CC(C)(C)CC4)cc2)NC(=O)OC2COC3(C)OCCC23)cc1 (stereo not drawn) [Compound I-529] | 4.98 nM
COc1ccc(S(=O)(=O)N(CC(C)C)CC(O)C(Cc2ccc(NCc3cc(C)c(-c4sc5c(c4C(=O)O)CC(C)(C)CC5)c(C)c3)cc2)NC(=O)OC2COC3(C)OCCC23)cc1 (stereo not drawn) [Compound I-533] | 10.6 nM
COc1ccc(S(=O)(=O)N(CC(C)C)CC(O)C(Cc2ccc(NCc3ccc(-c4sc5c(c4C(=O)O)CC(C)(C)CC5)c(C)c3)cc2)NC(=O)OC2COC3(C)OCCC23)cc1 (stereo not drawn) [Compound I-534] | 4.11 nM
COc1ccc(S(=O)(=O)N(CC(C)C)CC(O)C(Cc2ccc(NCc3c(C)c(C)c(-c4sc5c(c4C(=O)O)CC(C)(C)CC5)c(C)c3C)cc2)NC(=O)OC2COC3(C)OCCC23)cc1 (stereo not drawn) [Compound I-535] | 43.1 nM
COc1ccc(S(=O)(=O)N(CC(C)C)CC(O)C(Cc2ccc(NC3c4ccccc4C(=O)N3c3sc4c(c3C(=O)O)CC(C)(C)CC4)cc2)NC(=O)OC2COC3(C)OCCC23)cc1 (stereo not drawn) [Compound I-536] | 2.1 nM
COc1ccc(S(=O)(=O)N(CC(C)C)CC(O)C(Cc2ccc(NCc3cccc(-c4sc5c(c4C(=O)O)CC(C)(C)CC5)c3F)cc2)NC(=O)OC2COC3(C)OCCC23)cc1 (stereo not drawn) [Compound I-543] | 2.14 nM
COc1ccc(S(=O)(=O)N(CC(C)C)CC(O)C(Cc2ccc(NCc3cccc(-c4sc5c(c4C(=O)O)CC(C)(C)CC5)c3Cl)cc2)NC(=O)OC2COC3(C)OCCC23)cc1 (stereo not drawn) [Compound I-544] | 3.65 nM
COc1ccc(S(=O)(=O)N(CC(C)C)CC(O)C(Cc2ccc(NCc3c(-c4sc5c(c4C(=O)O)CC(C)(C)CC5)cccc3[N+](=O)[O-])cc2)NC(=O)OC2COC3(C)OCCC23)cc1 (stereo not drawn) [Compound I-546] | 1.86 nM
COc1ccc(S(=O)(=O)N(CC(C)C)CC(O)C(Cc2ccc(NCc3cc(Cl)ccc3-c3sc4c(c3C(=O)O)CC(C)(C)CC4)cc2)NC(=O)OC2COC3(C)OCCC23)cc1 (stereo not drawn) [Compound I-547] | 2.28 nM
COc1ccc(S(=O)(=O)N(CC(C)C)CC(O)C(Cc2ccc(NCc3ccc(O)cc3-c3sc4c(c3C(=O)O)CC(C)(C)CC4)cc2)NC(=O)OC2COC3(C)OCCC23)cc1 (stereo not drawn) [Compound I-548] | 1.49 nM
COc1ccc(S(=O)(=O)N(CC(C)C)CC(O)C(Cc2ccc(NCc3cc(C)cc(-c4sc5c(c4C(=O)O)CC(C)(C)CC5)c3)cc2)NC(=O)OC2COC3(C)OCCC23)cc1 (stereo not drawn) [Compound I-549] | 1.55 nM
COc1ccc(S(=O)(=O)N(CC(C)C)CC(O)C(Cc2ccc(NCc3ccc(-c4sc5c(c4C(=O)O)CC(C)(C)CC5)nc3)cc2)NC(=O)OC2COC3(C)OCCC23)cc1 (stereo not drawn) [Compound I-551] | 1.34 nM
COc1ccc(S(=O)(=O)N(CC(C)C)CC(O)C(Cc2ccc(NCc3cc(OC)cc(-c4sc5c(c4C(=O)O)CC(C)(C)CC5)c3OC)cc2)NC(=O)OC2COC3(C)OCCC23)cc1 (stereo not drawn) [Compound I-553] | 1.92 nM
COc1ccc(S(=O)(=O)N(CC(C)C)CC(O)C(Cc2ccc(NCc3ccc(-c4sc5c(c4C(=O)O)CC(C)(C)CC5)c(OC)c3)cc2)NC(=O)OC2COC3(C)OCCC23)cc1 (stereo not drawn) [Compound I-554] | 1.77 nM
COc1ccc(S(=O)(=O)N(CC(C)C)CC(O)C(Cc2ccc(NCc3cc(C)c(-c4sc5c(c4C(=O)O)CC(C)(C)CC5)cc3C)cc2)NC(=O)OC2COC3(C)OCCC23)cc1 (stereo not drawn) [Compound I-556] | 5.45 nM
COc1ccc(S(=O)(=O)N(CC(C)C)CC(O)C(Cc2ccc(NCc3cncc(-c4sc5c(c4C(=O)O)CC(C)(C)CC5)c3)cc2)NC(=O)OC2COC3(C)OCCC23)cc1 (stereo not drawn) [Compound I-557] | 1.67 nM
